Data published in US11117907B2, “Curcuminoid-inspired synthetic compounds as anti-tumor agents” (University of North Florida Board of Trustees, priority 2017, dated 2021).
Read-outs that look alike come from different tables or passages of the source. Blank lines part the entries; values can stand above or below the compound they belong to.

Tests used:
[1] = system: MM1.S; test: Apoptosis (annexin-V/PI flow cytometry), MM1.S; type: cell-based, human
Procedure: (§1) Apoptotic cell death in multiple myeloma (MM) cancer cell lines (RPMI-8226, KMS-11, MM1.S) as well as peripheral blood mononuclear cells (PBMCs) from healthy donors that were exposed to various concentrations of (A) CUR-analog 1 (Indole-4 CUR—BF2) and (B) CUR-analog 2 (Indole-5 CUR) or (C) the FDA-approved Bcl-2 inhibitor (venetoclax, used for comparison) was assessed.
(§2) Cell lines and PBCMs (peripheral blood mononuclear cells from healthy donors as non-cancer CONTROL) were seeded in quadruplicate (technical replicates). CellTiter-Glo® 2.0 reagent equal to the volume of cell culture medium present in each well was added and the plate was left to incubate at room temperature for 10 minutes to stabilize the luminescent signal. Luminescent signal/intensity from the 384-well plate was read on a plate reader. Cells/cell lines used: BCWM.1 (Waldenstrom macroglobulinemia cell line, WM); RPMI-8266 (Multiple myeloma cell line, MM); RS4; 11 (Acute lymphoblastic leukemia, ALL). For Apoptosis study cells were treated with the indicated agents and concentrations (FIG. 74) for 24 h and stained with annexin-V and propidium iodide (PI), followed by flow cytometry analysis.

[2] = system: MM cell lines (MM1.S, KMS11, RPMI-8226); test: Cell proliferation and viability in multiple myeloma cell lines (CellTiter Glo 2.0, 72 h); type: cell-based, human; details: read-out: median IC50 concentration in MM cell lines
Procedure: Cell proliferation and viability were determined in multiple myeloma (MM) cancer cell lines (RPMI-8226, KMS-11, MM1.S) as well as in peripheral blood mononuclear cells (PBMCs) from healthy donors that were exposed to various concentrations of (A) CUR-analog 1 (3-BF2) and (B) CUR-analog 2 (CUR 2) for 72 hours using the CellTiter Glo 2.0 assay.
as §2

[3] = system: PBMCs; test: Apoptosis (annexin-V/PI flow cytometry), healthy donor PBMCs; type: cell-based, human
Procedure: as §1, §2

[4] = system: KMS-11; test: Apoptosis (annexin-V/PI flow cytometry), KMS-11; type: cell-based, human
Procedure: as §1, §2

[5] = system: RPMI-8226; test: Apoptosis (annexin-V/PI flow cytometry), RPMI-8226; type: cell-based, human; details: 2.5 uM, 24 h
Procedure: as §1, §2

[6] = system: MDA231; test: In vitro cell viability bioassay, MTT, MDA231; type: cell-based, human
Procedure: (§3) To evaluate the cell growth inhibitory and apoptosis inducing effects of the fluorinated curcuminoids and their BF2 adducts, in-vitro bioassay tests were performed on […] different cancer cell lines namely: MOLT-4 (human leukemia suspension cancer cell line), PC3 and LNCap (human […] prostate cancer cell lines respectively), A549 (lung cancer), and MDA231 (breast cancer), and the results are sketched in Table 3.
(§4) The cell viability/anti-proliferative activity of the curcuminoids against PC3 (human androgen-insensitive prostate cancer cell line), LNCap (human-androgen sensitive prostate cancer cell line), A549 (lung cancer), and MDA231 (breast cancer) were determined by means of 3-(4,5-dimethyl-2-thiazolyl)-2,5-diphenyl-2H-tetrazolium bromide (MTT) assay (the tetrazolium salt was a commercial sample). (R. N. Khaybullin, et al., Molecules, 2014, 19, 18676-18689). The ability of the curcuminoids to affect proliferations of suspension cell lines (MOLT-4) was tested by the CellTiter-Glo® Luminescent Cell Viability Assay (purchased from Promega Madison, Wis., USA) to determine the number of viable cells in culture based on quantitation of the ATP present. The IC50 values were obtained from fitting data with GraphPad software to determine the growth inhibition in the presence of test compounds. (R. N. Khaybullin, et al., Molecules, 2014, 19, 18676-18689).

[7] = system: MOLT-4; test: In vitro cell viability bioassay, CellTiter-Glo, MOLT-4; type: cell-based, human
Procedure: as §3, §4

[8] = system: A549; test: In vitro cell viability bioassay, MTT, A549; type: cell-based; details: Homo sapiens, MTT assay, read-out: Lung Cancer IC50 (μM) A549
Procedure: as §3, §4

[9] = system: LNCap; test: In vitro cell viability bioassay, MTT, LNCap; type: cell-based; details: Homo sapiens, MTT assay, read-out: Prostate Cancer IC50 (μM) LNCap
Procedure: as §3, §4

[10] = system: PC3; test: In vitro cell viability bioassay, MTT, PC3; type: cell-based; details: Homo sapiens, PC-3; MTT assay; read-out: Prostate Cancer IC50 (μM) PC3
Procedure: as §3, §4

[11] = system: NCI-60 human tumor cell lines; test: NCI-60 one-dose screening (10^−5 M); type: cell-based
Text: The CUR—BF2 adducts 5, 10, and 19, the (CF3)2—CUR 20 and the (CF3)2—CUR—BF2 adduct 21 of FIG. 2 were screened at the National Cancer Institute using NCI-60 cell one-dose protocol (10^−5 M).
(§5) Samples were submitted to the National Cancer Institute (NCI of NIH) Developmental Therapeutics anticancer screening program (DTP) for human tumor cell line assay by NCI-60 screening against leukemia, lung, colon, and CNS cancers, as well as melanoma, ovarian, renal, prostate, and breast cancers. Compounds are initially tested at a single dose of 10-5 molar. Data are reported as mean graph of percent growth (GP). Growth inhibition is shown by values between 0 and 100 and lethality by values less than zero. Compounds that meet selection criteria based on one-dose assay are then tested against 60 cell panel at five concentrations.
as §5, with “NCI-60 assay: Samples” for “Samples”, “10^−5” for “10-5”
as §5, with “NCI-60 assay: samples” for “Samples”, “10^−5” for “10-5”, “(GP). Selected data output are shown in SI file.” for “(GP).”, “represented” for “shown”, “zero.” for “zero. Compounds that meet selection criteria based on one-dose assay are then tested against 60 cell panel at five concentrations.”

[12] = system: MM cell lines; test: Apoptosis (annexin-V/PI flow cytometry), median over MM cell lines; type: cell-based, human; details: 1.25, 2.5, 5 uM and 10 uM
Procedure: as §1, with “assessed. Bar graphs show % of apoptotic cells (annexin-V+PI positive cells) normalized to basal apoptosis observed in control (DMSO-treated) cells.” for “assessed.”
In contrast, in KMS11 and MM1.S cells, notable apoptosis (54% and 15%, respectively) was seen only at a 10 uM concentration.
as §2, with “For Apoptosis study cells were treated with the indicated agents and concentrations (FIG. 74) for 24 h and stained with annexin-V and propidium iodide (PI), followed by flow cytometry analysis.” left out

[13] = system: Various cancer cell lines; test: Cancer cell line growth at 1×10^−5 M curcuminoid; type: cell-based; details: all cancer cell lines
Procedure: Various cancer cell lines were seeded into 384-well culture plates at 2×10^3 cell/well and incubated at 5% CO2, 37° C. The culture media was replaced with 1×10^−5 M of curcuminoid; 1,7-bis(2,3,6-trimethoxyphenyl)hepta-1,4,6-triene-3,5-dione, 7-bis(3-benzothiophene)hepta-1,4,6-triene-3,5-dione, or D-793176. The cell line growth was measured.

[14] = Table 4, repeats Table 3, read-out: IC50 MDA231 (Breast cancer)
[15] = Homo sapiens, MOLT-4, CellTiter-Glo Luminescent Cell Viability Assay, read-out: Leukemia IC50 (μM) MOLT-4
[16] = Homo sapiens, MDA-MB-231, MTT assay, read-out: Breast Cancer IC50 (μM) MDA231
[17] = Table 5, repeats Table 3, read-out: Leukemia MOLT-4 IC50
[18] = Homo sapiens, MDA-MB-231, Table 4, repeats Table 3, read-out: IC50 MDA231 (Breast cancer)

IC50 [2]: 2.1 µM
Compound: F[B-]1(F)OC(/C=C/c2cccc3[nH]ccc23)=CC(/C=C/c2cccc3[nH]ccc23)=[O+]1 [3-BF2, Indole-4-Curcuminoid-BF2 adduct]
apoptosis, MM1.S ([1]; 2.5 uM, 24 h): 47%
apoptosis, healthy donor PBMCs ([3]; […] and 2.5 uM, 24 h): 23-28%
apoptosis, KMS-11 ([4]; 2.5 uM, 24 h): 79%
apoptosis, RPMI-8226 [5]: 60%

Compound: COc1cc(F)c(/C=C/C2=CC(/C=C/c3cc(OC)c(OC)cc3F)=[O+][B-](F)(F)O2)cc1OC [drawing 72]
IC50 [6, 14]: 1.7 µM

IC50 [7, 15]: 19 µM
IC50 [8]: 18 µM
IC50 [9]: 9.7 µM
IC50 [10]: 9 µM
Compound: COc1cc(/C=C/C(=O)CC(=O)/C=C/c2ccc(O)c(OC)c2)ccc1O [compound 1 of FIG. 2, curcumin]
IC50 [6, 16]: 11.5 µM

IC50 [7, 17]: 0.00056 µM
Compound: COc1ccc(/C=C/C2=CC(/C=C/c3ccc(OC)c(OC)c3)=[O+][B-](F)(F)O2)cc1OC [drawing 84]

Compound: COc1cc(/C=C/C(=O)C=C(O)/C=C/c2ccc(O)c(OC)c2)ccc1O [drawing 75]
IC50 [6, 14]: 11.5 µM

Compound: COc1ccc(/C=C/C2=CC(/C=C/c3ccc(OC)c(OC)c3)=[O+][B-](F)(F)O2)cc1OC [drawing 73]
IC50 [6, 14]: 2 µM

Compound: F[B-]1(F)OC(/C=C/c2ccc(C(F)(F)F)cc2)=CC(/C=C/c2ccc(C(F)(F)F)cc2)=[O+]1
NCI-60 cell screening ([11]; words in the IC50 MDA231 column of Table 4): NCI-60 cell screening modest activity

Compound: COc1ccc(/C=C/C(=O)C(F)=C(O)/C=C/c2ccc(OC)c(OC)c2)cc1OC [drawing 69]
IC50 [6, 14]: 0.023 µM

Compound: (1E,4E,6E)-5-Hydroxy-1,7-bis(indole-5)hepta-1,4,6-trien-3-one [compound 2 of Example 5]
apoptosis, MM1.S ([1]; 10 uM): 15%
apoptosis, KMS11 ([4]; 10 uM): 54%
apoptosis, RPMI-8226 [5]: 65%

IC50 [7, 15]: 1.32 µM
IC50 [9]: 29.2 µM
Compound: O=C(/C=C/c1ccc(F)cc1)C(F)(F)C(=O)/C=C/c1ccc(F)cc1 [compound 12]
IC50 [6, 16]: 6.7 µM

IC50 [7, 17]: 0.01 µM
Compound: COc1cc(F)c(/C=C/C2=CC(/C=C/c3cc(OC)c(OC)cc3F)=[O+][B-](F)(F)O2)cc1OC [drawing 86]

Compound: CC1(C)CCC(CN2CCN(c3ccc(C(=O)NS(=O)(=O)c4ccc(NCC5CCOCC5)c([N+](=O)[O-])c4)c(Oc4cnc5[nH]ccc5c4)c3)CC2)=C(c2ccc(Cl)cc2)C1 [Venetoclax, reference compound]
median apoptosis, MM cell lines [12]: 15%
cell death in healthy donor PBMCs ([3]; 1.25, 2.5, 5 uM and 10 uM): ~10%

Compound: O=C(/C=C/c1ccc(SC(F)(F)F)cc1)/C=C(O)\C=C\c1ccc(SC(F)(F)F)cc1 [compound 19 of FIG. 35, (1E,4E,6E)-5-Hydroxy-1,7-bis(4-trifluoromethylthiophenyl)hepta-1,4,6-trien-3-one]
anti-proliferative potency against HCT-116 ([11]; dose mean graph, FIG. 22): high anti-proliferative potency

Compound: COc1cc(/C=C/C(=O)C(F)(F)C(=O)/C=C/c2ccc(OC)c(OC)c2)ccc1O
IC50 [6, 18]: 2.2 µM

Compound: COc1ccc(/C=C/C(=O)C=C(O)/C=C/c2ccc(OC)c(OC)c2)cc1OC [drawing 70]
IC50 [6, 14]: 0.28 µM

Compound: COc1cc(/C=C/C(=O)C(F)=C(O)/C=C/c2ccc(O)c(OC)c2)ccc1O
IC50 [6, 14]: 6.2 µM

Compound: Fc1ccc(/C=C/C2=CC(/C=C/c3ccc(F)cc3)=[O+][B-](F)(F)O2)cc1
IC50 [6, 14]: 1 µM

IC50 [7, 17]: 0.076 µM
Compound: COc1ccc(/C=C/C(=O)C(F)=C(O)/C=C/c2ccc(OC)c(OC)c2)cc1OC [drawing 85]

IC50 [7, 17]: 0.043 µM
Compound: COc1ccc(/C=C/C(=O)C=C(O)/C=C/c2ccc(OC)c(OC)c2)cc1OC [drawing 83]

Compound: O=C(/C=C/c1ccc(F)cc1)C(F)(F)C(=O)/C=C/c1ccc(F)cc1 [drawing 77]
IC50 [6, 18]: 6.7 µM

Compound: F[B-]1(F)OC(/C=C/c2csc3ccccc23)=CC(/C=C/c2csc3ccccc23)=[O+]1 [7-BF2, Benzothiophene-3-Curcuminoid-BF2 adduct]
anti-proliferative activity by the NCI-60 in-vitro assay ([11]; 10^−5 molar, Example 5): notable anti-proliferative activity

IC50 [7, 17]: 19 µM
Compound: COc1cc(/C=C/C(=O)C=C(O)/C=C/c2ccc(O)c(OC)c2)ccc1O [drawing 82]

Compound: 1,7-bis(2,3,6-trimethoxyphenyl)hepta-1,4,6-triene-3,5-dione
cell line growth relative to non-treated cells [13]: ≤ 50%

Compound: O=C(/C=C/c1ccc(F)cc1)C(F)=C(O)/C=C/c1ccc(F)cc1
IC50 [6, 14]: 12 µM
